From ChEMBL document CHEMBL1201862, “PubChem BioAssay data set” (2004) come the findings set out here.

Test systems include SK-MEL-2; CCRF-CEM; Hs-578T; MDA-N; RXF 393; U-251; NCI/ADR-RES; K562; BT-549; CAKI-1; SF-295; SNB-75; MCF7; KM12; HCT-116; DU-145; MDA-MB-231; TK-10; SR; SNB-19.
Common to all, as to assay: NCI anticancer screen, dose series, 48 h

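Method: 48-hour compound exposure of cells in 96-well plates, five concentrations, linear interpolation of endpoints. GI50: concentration for 50% inhibition of growth.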 Activity calls are given as the source filed them. No stated cut-off is given here; in the data, active = GI50 up to about 1.1 µM and inactive = higher.

For `O=[N+]([O-])c1nccn1CCCNc1c2ccccc2[n+]([O-])c2ccccc12`, the GI50 is 88.5 µM (inactive) in the test on SK-MEL-2; > 100 µM (inactive) in the test with CCRF-CEM; > 100 µM (inactive) with Hs-578T; > 100 µM (inactive) with MDA-N; > 100 µM (inactive) in the test with RXF 393; > 100 µM (inactive) in the test with U-251. In addition, the GI50 with NCI/ADR-RES, in the test on K562, with BT-549, with CAKI-1, in the test with SF-295 and in the test with SNB-75 was > 100 µM (inactive) each time. The GI50 in the test with MCF7, with KM12, in the test on HCT-116, in the test with DU-145, in the test on MDA-MB-231 and with TK-10 was > 100 µM (inactive) each time. Besides, in the test on SR, the GI50 is > 100 µM (inactive).

As to `Nc1nnc2oc3ccc4ccccc4c3cc1-2`, the GI50 was 27.7 µM (inactive) in the test with SK-MEL-2; 24.5 µM (inactive) in the test on CCRF-CEM; 54.5 µM (inactive) in the test on Hs-578T; 34 µM (inactive) in the test on MDA-N; 28 µM (inactive) with RXF 393; 35.9 µM (inactive) in the test with U-251. In addition, the GI50 in the test with NCI/ADR-RES is 30.9 µM (inactive); in the test with K562 it was 37.5 µM (inactive); in the test on BT-549 it was 33.8 µM (inactive); in the test on CAKI-1, 48.8 µM (inactive); with SF-295, 26.4 µM (inactive); with SNB-75 it was 21.4 µM (inactive). In addition, the GI50 in the test on MCF7 was 28 µM (inactive); in the test on KM12, 29.7 µM (inactive); in the test on HCT-116, 34.4 µM (inactive); with DU-145 it was 56.5 µM (inactive); with MDA-MB-231, 24.5 µM (inactive); with TK-10, 42 µM (inactive). For the same molecule, the GI50 in the test on SR was 23.1 µM (inactive); in the test with SNB-19 it was 51.8 µM (inactive).

Regarding `Cc1cn(CCOCCOC(=O)NC(CCCNC(N)=O)C(=O)O)c(=O)[nH]c1=O` (stereo not given), the GI50 in the test with SK-MEL-2, with CCRF-CEM, with Hs-578T, with MDA-N, with RXF 393 and with U-251 was > 100 µM (inactive) each time. Also, the GI50 with NCI/ADR-RES, in the test on K562, in the test with BT-549, in the test with CAKI-1, in the test with SF-295 and in the test on SNB-75 was > 100 µM (inactive) in each case. The GI50 with MCF7, in the test with KM12, in the test with HCT-116, with DU-145, in the test with MDA-MB-231 and in the test on TK-10 was > 100 µM (inactive) each time. Moreover, the GI50 in the test on SR and in the test with SNB-19 was > 100 µM (inactive) each time.

Consider `Cc1nc2c(C)c3c([nH]c4ccc(Cl)cc43)c(C)c2c(O)c1C`, for which the GI50 in the test with SK-MEL-2 was 65.2 µM (inactive); in the test with CCRF-CEM, 2.91 µM (inactive); in the test with Hs-578T, 15.9 µM (inactive); with MDA-N it was 6.73 µM (inactive); in the test on U-251 it was 5.73 µM (inactive); with NCI/ADR-RES, 8.39 µM (inactive). Further, the GI50 is 7.5 µM (inactive) in the test on K562; 14.9 µM (inactive) in the test with BT-549; 5.71 µM (inactive) in the test on CAKI-1; 5.89 µM (inactive) with SF-295; 16.8 µM (inactive) with SNB-75; 2.2 µM (inactive) with MCF7. Moreover, the GI50 in the test on KM12 was 10.4 µM (inactive); with HCT-116 it was 4.29 µM (inactive); in the test on DU-145, 5.71 µM (inactive); with MDA-MB-231, 2.44 µM (inactive); in the test on TK-10, 7.33 µM (inactive); in the test with SR, 2.19 µM (inactive). Also, the GI50 in the test on SNB-19 was 15.7 µM (inactive).

Take `CC(C)=CCC[C@@H](C)C1=C(O)C(=O)C(C)=C(N)C1=O`: the GI50 was 29 µM (inactive) in the test on SK-MEL-2; 6.11 µM (inactive) in the test with CCRF-CEM; 38.9 µM (inactive) in the test with Hs-578T; 24.6 µM (inactive) in the test with MDA-N; 32.9 µM (inactive) with RXF 393; 34.8 µM (inactive) in the test on U-251. In addition, the GI50 in the test on NCI/ADR-RES is 3.9 µM (inactive); in the test with K562, 23.2 µM (inactive); with BT-549, 42.2 µM (inactive); with CAKI-1, 24 µM (inactive); with SF-295, 12.9 µM (inactive); in the test on SNB-75, 28.8 µM (inactive). Also, the GI50 is 50.8 µM (inactive) with MCF7; 23.3 µM (inactive) in the test on KM12; 45.1 µM (inactive) in the test on HCT-116; 42.7 µM (inactive) in the test with DU-145; 46.5 µM (inactive) in the test on MDA-MB-231; 50.2 µM (inactive) in the test on TK-10. For the same molecule, the GI50 with SR is 16.7 µM (inactive); with SNB-19, 32.5 µM (inactive).

For the molecule `CN(Cc1nc2c(N)nc(N)nc2nc1N)c1ccc(C(=O)NC(CCC(=O)O)C(=O)O)cc1` (stereo not given), the GI50 in the test with SK-MEL-2 is > 100 µM (inactive); in the test on CCRF-CEM it was < 0.01 µM (active); in the test with Hs-578T, > 19.8 µM (inactive); in the test on MDA-N, 0.0442 µM (active); with RXF 393, > 100 µM (inactive); in the test on U-251, 0.494 µM (active). Moreover, the GI50 in the test on NCI/ADR-RES is 0.225 µM (active); in the test on BT-549, > 100 µM (inactive); with CAKI-1 it was 0.0322 µM (active); in the test with SF-295, 0.162 µM (active); in the test with SNB-75, 7.45 µM (inactive); with MCF7, 0.0596 µM (active). In addition, the GI50 is > 100 µM (inactive) in the test on KM12; < 0.01 µM (active) in the test on HCT-116; 0.254 µM (active) in the test with DU-145; > 100 µM (inactive) with MDA-MB-231; 0.752 µM (active) in the test on TK-10; < 0.01 µM (active) in the test with SR. In the test on SNB-19, the GI50 was 64.6 µM (inactive).

For the molecule `O=C(NCc1cccs1)OC1CC2CCC1C2` (stereo not given), the GI50 in the test with SK-MEL-2 is > 100 µM (inactive); in the test with CCRF-CEM, > 100 µM (inactive); in the test on Hs-578T, 81.5 µM (inactive); with MDA-N it was > 100 µM (inactive); in the test on RXF 393 it was > 100 µM (inactive); in the test on U-251 it was > 100 µM (inactive). The GI50 in the test on NCI/ADR-RES, in the test with K562, with BT-549, in the test with CAKI-1, in the test on SF-295 and in the test with MCF7 was > 100 µM (inactive) throughout. Besides, the GI50 with KM12, with HCT-116, with DU-145, in the test with MDA-MB-231, with TK-10 and with SR was > 100 µM (inactive) throughout. In addition, the GI50 in the test on SNB-19 is > 100 µM (inactive).

On to `CCOC(=O)C1(C#N)OC(=O)c2cnccc21` (stereo not given), for which the GI50 in the test with SK-MEL-2, in the test on CCRF-CEM, with Hs-578T, in the test on MDA-N, in the test on RXF 393 and with U-251 was > 100 µM (inactive) in each case. For the same molecule, the GI50 with NCI/ADR-RES, with K562, in the test on BT-549, with CAKI-1, in the test with SF-295 and in the test with SNB-75 was > 100 µM (inactive) in each case. The GI50 with MCF7, in the test on KM12, in the test with HCT-116, in the test with DU-145, in the test on MDA-MB-231 and with SR was > 100 µM (inactive) throughout. The GI50 with SNB-19 was > 100 µM (inactive).

Regarding `S=C(Nc1ccc2c(c1)oc1ccccc12)c1cccnc1`, the GI50 with SK-MEL-2 is 30.5 µM (inactive); with CCRF-CEM, > 100 µM (inactive); in the test on Hs-578T, > 10 µM (inactive); with MDA-N, > 100 µM (inactive); in the test with U-251, 21.6 µM (inactive); with NCI/ADR-RES it was 25.1 µM (inactive). In addition, the GI50 with BT-549 was 37.1 µM (inactive); in the test with SF-295 it was 29.9 µM (inactive); in the test on SNB-75, 21.2 µM (inactive); with MCF7, 40.9 µM (inactive); in the test with KM12, > 100 µM (inactive); with HCT-116 it was 85.7 µM (inactive). For the same molecule, the GI50 in the test on DU-145 was > 100 µM (inactive); in the test with MDA-MB-231 it was > 100 µM (inactive); with TK-10, 30.5 µM (inactive); in the test on SR, > 100 µM (inactive); with SNB-19 it was 21.3 µM (inactive).

As to `Cc1sccc1C(=S)Nc1ccc(Cl)c(/C=N/OC(C)(C)C)c1`, the GI50 in the test on SK-MEL-2 is 15.5 µM (inactive); with CCRF-CEM it was 21.3 µM (inactive); with Hs-578T, 22.3 µM (inactive); in the test on MDA-N it was 13.3 µM (inactive); with RXF 393, 17.2 µM (inactive); in the test on U-251 it was 21.6 µM (inactive). Moreover, the GI50 is 17.8 µM (inactive) in the test with NCI/ADR-RES; 17.7 µM (inactive) in the test on BT-549; 12 µM (inactive) with CAKI-1; 16.7 µM (inactive) with SF-295; 21.1 µM (inactive) with SNB-75; 11.8 µM (inactive) with MCF7. The GI50 was 13.2 µM (inactive) in the test with KM12; 14.1 µM (inactive) with HCT-116; 14.6 µM (inactive) with DU-145; 13.3 µM (inactive) in the test on MDA-MB-231; 19.1 µM (inactive) in the test with TK-10; 17.6 µM (inactive) in the test with SR.
